Literature values in PMC12181400, “Leveraging viral genome sequences and machine learning models for identification of potentially selective antiviral agents” (Communications Chemistry, 2025).
Where a name gives a salt, the structure may show the parent alone. Read-outs that look alike come from different tables or passages of the source. Peptide text beside a SMILES is read from it.

Assays:
Settings in all cases: cited from earlier work
[1] = system: cell viability (tox21-ap1-agonist-p1)
[2] = system: cell viability (tox21-ar-mda-kb2-luc-agonist-p3)
[3] = system: cell viability (tox21-ar-mda-kb2-luc-antagonist-p2)
[4] = system: cell viability (tox21-are-bla-p1)
[5] = system: cell viability (tox21-car-agonist-p1)
[6] = system: cell viability (tox21-car-antagonist-p1)
[7] = curve rank −9 to 9, 0 = inactive, ref NCATS Tox21 public data browser

SMILES | tox21-ap1-agonist-p1-viability (curve rank) [1] | tox21-ar-mda-kb2-luc-agonist-p3-viability (curve rank) [2] | tox21-ar-mda-kb2-luc-antagonist-p2-viability (curve rank) [3] | tox21-are-bla-p1-viability (curve rank) [4] | tox21-car-agonist-p1-viability (curve rank) [5] | tox21-car-antagonist-p1-viability (curve rank) [6] | tox21-ap1-agonist-p1-viability (curve rank) [1, 7] | tox21-ar-mda-kb2-luc-agonist-p3-viability (curve rank) [2, 7] | tox21-ar-mda-kb2-luc-antagonist-p2-viability (curve rank) [3, 7] | tox21-are-bla-p1-viability (curve rank) [4, 7] | tox21-car-agonist-p1-viability (curve rank) [5, 7] | tox21-car-antagonist-p1-viability (curve rank) [6, 7]
Nc1nc2ncc(CNc3ccc(C(=O)N[C@@H](CCC(=O)O)C(=O)O)cc3)nc2c(=O)[nH]1 [Folic acid] | 0 | 0 | 0 | 0 | 0 | 0 |  |  |  |  |  | 
Cc1cccc(C(=O)O)c1O [2-Hydroxy-3-methylbenzoic acid] | 0 | 0 | 0 | 0 | 0 | 0 |  |  |  |  |  | 
CN(C)CCOC(=O)C(c1ccccc1)C1(O)CCCC1 (centres unmarked) [Cyclopentolate hydrochloride] |  |  |  |  |  |  | 0 | 0 | 0 | 0 | 0 | 0
C#CCN(C)[C@H](C)Cc1ccccc1 [Selegiline hydrochloride] |  |  |  |  |  |  | 0 | 0 | 0 | 0 | 0 | 0
CSc1ccc(C(=O)c2[nH]c(=O)[nH]c2C)cc1 [Enoximone] | 0 | 0 | 0 | 0 | 0 | 0 |  |  |  |  |  | 
CCN1CCC[C@H]1CNC(=O)c1c(OC)ccc(Br)c1OC [Remoxipride] | 0 | 0 | 0 | 0 | 0 | 0 |  |  |  |  |  | 
Nc1ccc(S(=O)(=O)Nc2ccccn2)cc1 [Sulfapyridine] | 0 | 0 | 0 | 0 | 0 | 0 |  |  |  |  |  | 
CC[C@]12CCCN3CCc4c(n(c5ccccc45)[C@@](O)(C(=O)OC)C1)[C@@H]32 [Vincamine] |  |  |  |  |  |  | 0 | 0 | 0 | 0 | 0 | 0
CCOC(=O)[C@H](CCc1ccccc1)N[C@@H](C)C(=O)N1CCC[C@H]1C(=O)O [Enalapril maleate] | 0 | 0 | 0 | 0 | 0 | 0 |  |  |  |  |  | 
Clc1cccc(Cl)c1N=C1NCCN1 [Clonidine] | 0 | 0 | 0 | 0 | 0 | 0 |  |  |  |  |  | 
CCC1(c2cccc(O)c2)CCCCN(C)C1 (centres unmarked) [Meptazinol hydrochloride] |  |  |  |  |  |  | 0 | 0 | 0 | 0 | 0 | 0
CC[C@@H](CO)NC(=O)[C@@H]1C=C2c3cccc4c3c(cn4C)C[C@H]2N(C)C1 [Methysergide] |  |  |  |  |  |  | 0 | 0 | 0 | 0 | 0 | 0
CC1(C)Oc2ccc(C#N)cc2[C@@H](N2CCCC2=O)[C@@H]1O [Levcromakalim] | 0 | 0 | 0 | 0 | 0 | 0 |  |  |  |  |  | 
OC[C@H]1O[C@@H](Oc2ccc(O)cc2)[C@H](O)[C@@H](O)[C@@H]1O [Arbutin] |  |  |  |  |  |  | 0 | 0 | 0 | 0 | 0 | 0
NC(=O)c1ccccc1O [Salicylamide] | 0 | 0 | 0 | 0 | 0 | 0 |  |  |  |  |  | 
CC(C)NCC(O)COc1ccc(COCCOC(C)C)cc1 (centres unmarked) [Bisoprolol fumarate] | 0 | 0 | 0 | 0 | 0 | 0 |  |  |  |  |  | 
NS(=O)(=O)c1cc2c(cc1C(F)(F)F)NC(Cc1ccccc1)NS2(=O)=O (centres unmarked) [Bendroflumethiazide] | 0 | 0 | 0 | 0 | 0 | 0 |  |  |  |  |  | 
CN1C(=O)CCS(=O)(=O)C1c1ccc(Cl)cc1 (centres unmarked) [Chlormezanone] |  |  |  |  |  |  | 0 | 0 | 0 | 0 | 0 | 0
NC(=O)N1c2ccccc2C=Cc2ccccc21 [Carbamazepine] | 0 | 0 | 0 | 0 | 0 | 0 |  |  |  |  |  | 
OC(c1ccccc1)(c1ccccc1)C1CCNCC1 [Azacyclonol] |  |  |  |  |  |  | 0 | 0 | 0 | 0 | 0 | 0
COc1cc(-c2ccc(=O)[nH]n2)ccc1OC(F)F [Zardaverine] |  |  |  |  |  |  | 0 | 0 | 0 | 0 | 0 | 0
COc1ccc(C2CNC(=O)C2)cc1OC1CCCC1 (centres unmarked) [Rolipram] |  |  |  |  |  |  | 0 | 0 | 0 | 0.67 | 0 | 0
CCN(CC)CCNC(=O)c1cc(Br)c(N)cc1OC [Bromopride] | 0 | 0 | 0 | 0 | 0 | 0 |  |  |  |  |  | 
CCC1(c2ccccc2)C(=O)NCNC1=O [Primidone] | 0 | 0 | 0 | 0 | 0 | 0 |  |  |  |  |  | 
C[C@](N)(Cc1ccc(O)c(O)c1)C(=O)O [Methyldopa] | 0 | 0 | 0 | 0 | 0 | 0 |  |  |  |  |  | 
Cc1cc2c(cc1S(N)(=O)=O)S(=O)(=O)CCC2 [Meticrane] |  |  |  |  |  |  | 0 | 0 | 0 | 0 | 0 | 0
COC(=O)[C@H](Cc1ccccc1)NC(=O)[C@@H](N)CC(=O)O [Aspartame] (H-Asp-Phe-OMe) |  |  |  |  |  |  | 0 | 0 | 0 | 0 | 0 | 0
CCC(C)(CN(C)C)OC(=O)c1ccccc1.Cl (centres unmarked) [Amylocaine hydrochloride] |  |  |  |  |  |  |  |  |  |  |  | 0
CCN(Cc1ccncc1)C(=O)C(CO)c1ccccc1 (centres unmarked) [Tropicamide] |  |  |  |  |  |  | 0 |  |  | 0 | 0 | 0
